Laboratory results taken from ChEMBL document CHEMBL1147352, “Paniceins and related sesquiterpenoids from the Mediterranean sponge Reniera fulva” (1993).

What was measured:
CCRF-CEM = experiment: Cytotoxicity against human CCRF-CEM cells; assay type: functional; conditions: for GI50: read-out: Log10GI50 (converted); for TGI: read-out: Log10TGI (converted)
NCI-H522 = experiment: Cytotoxicity against human NCI-H522 cells; assay type: functional; conditions: for GI50: read-out: Log10GI50 (converted); for CC50: read-out: Log10LC50 (converted); for TGI: read-out: Log10TGI (converted)

## COc1cc(C)c(CC/C(C)=C/Cc2cc(O)ccc2O)c(C)c1C [PANICEIN A HYDROQUINONE]
CCRF-CEM
  GI50: 7.76 µM
  TGI: > 25.1 µM
CCRF-CEM; read-out: Log10LC50 (converted)
  CC50: > 25.1 µM

## C/C(=C\Cc1cc(O)ccc1O)CCc1c(C)cc(O)c(C=O)c1C [PANICEIN B3]
CCRF-CEM
  GI50: 4.47 µM
  TGI: 30.2 µM
NCI-H522
  GI50: 10 µM
  CC50: 55 µM
  TGI: 23.4 µM

## C/C(=C\Cc1cc(O)ccc1O)CCc1c(C)c(O)c(O)c(C=O)c1C [PANICEIN C]
CCRF-CEM
  GI50: 3.31 µM
  TGI: 9.55 µM
NCI-H522
  GI50: 5.25 µM
  CC50: 63.1 µM
  TGI: 21.4 µM
